Data on 26 molecules can be found in patent US20240166643A1, “IMIDAZO[1,2-A]PYRIDINE COMPOUNDS AND THEIR USE IN THERAPY” (Imperial College Innovations Limited, priority 2020, published 2024).

Read-outs that look alike come from different tables or passages of the source. Marks after values point to notes of the source that are not given here.

Data set [1] concerns P. falciparum Pf3D7^0087/N9. Description: Mouse malaria model, NODscidIL2Rγnull mice engrafted with human erythrocytes. To be noted: for average parasitemia values: 50 mg/kg po per day on day 3, 4, 5 and 6 post-infection.
Data set [2] relates to Plasmodium falciparum 3D7. Kind of data set: SYBR Green assay, Plasmodium falciparum strain 3D7. To be noted: P. falciparum strain 3D7, 96 h incubation, read-out: Pf EC50 strain 3D7. The class given is cell-based.
The nature of data set [3]: in vitro. To be noted: male, Sprague-Dawley, rat, pooled cryopreserved rat hepatocytes, pH 7.4.
For data set [4], the target named is Human NMT1 (HsNMT1) (Homo sapiens, UniProt P30419). Description: biochemical.
Data set [5] has as its target Plasmodium vivax (Pv) NMT (Plasmodium vivax (strain Salvador I), UniProt A5K1A2). Description: biochemical.
Data set [6] in a line: Rat clearance and bioavailability (iv and oral dosing). The class given is in vivo. To be noted: male, Sprague-Dawley, plasma; for half-life: iv 1 mg/kg, read-out: Rat iv t1/2 (converted).
Where [7] appears, read: oral 5 mg/kg, cassette dosing of 4 compounds.

Chain of Human NMT1 (HsNMT1) (P30419 whole entry, looked up): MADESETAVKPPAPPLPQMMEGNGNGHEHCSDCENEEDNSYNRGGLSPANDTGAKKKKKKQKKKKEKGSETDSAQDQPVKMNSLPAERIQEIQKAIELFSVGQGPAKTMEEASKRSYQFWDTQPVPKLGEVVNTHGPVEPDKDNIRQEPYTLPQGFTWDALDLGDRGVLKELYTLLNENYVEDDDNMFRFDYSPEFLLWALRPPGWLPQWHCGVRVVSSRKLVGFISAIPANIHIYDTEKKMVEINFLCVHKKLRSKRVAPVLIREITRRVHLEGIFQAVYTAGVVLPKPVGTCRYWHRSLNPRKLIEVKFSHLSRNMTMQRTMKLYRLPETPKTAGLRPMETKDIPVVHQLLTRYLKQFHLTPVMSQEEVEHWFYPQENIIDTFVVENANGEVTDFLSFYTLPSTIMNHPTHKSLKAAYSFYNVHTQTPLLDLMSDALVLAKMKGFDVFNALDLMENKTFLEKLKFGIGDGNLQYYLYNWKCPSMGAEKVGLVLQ
Chain of Plasmodium vivax (Pv) NMT (A5K1A2 1-410): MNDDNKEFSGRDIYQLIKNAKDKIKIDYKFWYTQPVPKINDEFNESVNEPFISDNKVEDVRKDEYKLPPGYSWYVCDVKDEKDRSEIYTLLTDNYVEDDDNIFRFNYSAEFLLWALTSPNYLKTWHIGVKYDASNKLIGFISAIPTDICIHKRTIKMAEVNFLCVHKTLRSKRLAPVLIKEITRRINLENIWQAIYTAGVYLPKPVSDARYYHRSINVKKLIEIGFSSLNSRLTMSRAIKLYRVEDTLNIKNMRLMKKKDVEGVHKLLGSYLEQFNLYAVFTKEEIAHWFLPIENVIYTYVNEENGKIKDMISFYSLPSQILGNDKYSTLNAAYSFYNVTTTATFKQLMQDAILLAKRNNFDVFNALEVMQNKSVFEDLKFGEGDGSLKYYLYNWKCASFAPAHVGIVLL

Turning to `CCN(CC)CCCC(C)Nc1ccnc2cc(Cl)ccc12` (stereo not drawn) [Chloroquine (CQ), chloroquine, reference compound], the average parasitemia values was 0.01% in data set [1] (day 0 post infection); 0.80% in data set [1] (day 3 post infection); 0.24% in data set [1] (day 4 post infection); 0.05% in data set [1] (day 5 post infection); 0.01% in data set [1] (day 6 post infection); 0.00* % in data set [1] (day 7 post infection).

Turning to `C[C@@H]1CN(c2ncc(Cl)c(N3CC(C(=O)NC(C)(C)c4cnc5ccccn45)C3)n2)C[C@H](C)N1` [Example 43], the 50% effective concentration (EC50) in data set [2] came to 110 nM. The same molecule displayed a half-life at 1 µM in data set [3] of more than 3 h.

Take `C[C@@H]1CN(c2ncc(F)c(N3CC(C(=O)NC(C)(C)c4cnc5ccccn45)C3)n2)C[C@H](C)N1` [Example 44]: the half-maximal inhibitory concentration (IC50) in data set [4] worked out at 120 nM; in data set [5], 32 nM. Further, in data set [2], the EC50 is 540 nM. This molecule showed a half-life at 1 µM in data set [3] of more than 3 h.

With `Cc1ccc2ncc(C(C)(C)NC(=O)C3CN(c4nc(N5CCN(C)CC5)ncc4F)C3)n2c1` [Example 60], the EC50 in data set [2] amounted to 240 nM. The molecule also yielded an IC50 in data set [5] of 110 nM. The molecule also yielded a half-life at 1 µM in data set [3] of 2.41 h.

As to `CN1CCN(c2ncc(F)c(N3CC(C(=O)NC(C)(C)c4cnc5c(F)cccn45)C3)n2)CC1` [Example 61], the half-maximal effective concentration (EC50) in data set [2] amounted to 260 nM. In data set [5], this molecule returned an IC50 of 13 nM. For the same molecule, in data set [3], the half-life at 1 µM was more than 3 h.

For the molecule `CN1CCN(c2ncc(F)c(N3CC(C)(C(=O)NC(C)(C)c4cnc5ccccn45)C3)n2)CC1` [Example 65], the concentration for a half-maximal effect (EC50) in data set [2] was more than 1000 nM. In addition, the IC50 in data set [5] came out at 90 nM. The half-life at 1 µM in data set [3] amounted to 2.41 h.

For the molecule `Cc1cnc(N2CCN(C)CC2)nc1N1CC(C(=O)NC(C)(C)c2cnc3ccccn23)C1` [Example 66], the concentration for a half-maximal effect (EC50) in data set [2] turned out to be 320 nM. Moreover, half-maximal inhibition in data set [5] (IC50) required 29 nM. For the same molecule, the half-life at 1 µM in data set [3] was more than 3 h.

On to `Cc1ccc2ncc(C(C)(C)NC(=O)C3CN(c4nc(N5CCN(C)CC5)ncc4Cl)C3)n2c1` [Example 67], for which the EC50 in data set [2] worked out at 120 nM. In data set [5], this molecule showed an IC50 of 5.6 nM. This molecule also came in with a half-life at 1 µM in data set [3] of more than 3 h.

Consider `CCN1CCN(c2ncc(Cl)c(N3CC(C(=O)NC(C)(C)c4cnc5ccccn45)C3)n2)CC1` [Example 70], for which, in data set [2], the concentration for a half-maximal effect (EC50) was determined as 410 nM. The IC50 in data set [5] stood at 8.6 nM. In data set [3], the half-life at 1 µM is more than 3 h.

As to `CC(C)N1CCN(c2ncc(Cl)c(N3CC(C(=O)NC(C)(C)c4cnc5ccccn45)C3)n2)CC1` [Example 71], the IC50 in data set [4] is 72 nM; in data set [5], 11 nM. Besides, the EC50 in data set [2] stood at 560 nM. In data set [3], this molecule displayed a half-life at 1 µM of more than 3 h.

`COCCN1CCN(c2ncc(Cl)c(N3CC(C(=O)NC(C)(C)c4cnc5ccccn45)C3)n2)CC1` [Example 72]: the half-maximal inhibitory concentration (IC50) in data set [4] worked out at 82 nM; in data set [5], 7.7 nM. Also, the EC50 in data set [2] was more than 590 nM. Besides, in data set [6] (cassette dosing of 4 compounds), the half-life is 2.7 h. The bioavailability in data set [6] (setting [7]) was 34%. The molecule further had a half-life at 1 µM in data set [3] of more than 3 h.

`CN1CCN(c2ncc(Cl)c(N3CC(C(=O)N(C)C(C)(C)c4cnc5ccccn45)C3)n2)CC1` [Example 73]: the EC50 in data set [2] came to 810 nM. Also, the half-life in data set [6] (cassette dosing of 4 compounds) was 3.6 h. The bioavailability in data set [6] (setting [7]) came to 65%. Also, the half-life at 1 µM in data set [3] was more than 3 h.

With `CC1CN(c2ncc(Cl)c(N3CC(C(=O)N(C)C(C)(C)c4cnc5ccccn45)C3)n2)CCN1C` (stereo not drawn) [Example 74], the EC50 in data set [2] is 120 nM. Moreover, the half-life in data set [6] (administered as a single compound) was 2.2 h. In data set [6] (oral 10 mg/kg, administered as a single compound), the bioavailability turned out to be 28%. The molecule further registered a half-life at 1 µM in data set [3] of more than 3 h.

For `CN1CCN(c2ncc(Cl)c(N3CCC(C(=O)NC(C)(C)c4cnc5ccccn45)CC3)n2)CC1` [Example 77], in data set [2], the EC50 was more than 1000 nM. For the same molecule, in data set [5], the concentration for half-maximal inhibition (IC50) came to 74 nM. Besides, in data set [3], the half-life at 1 µM is 1.49 h.

For the molecule `CN1CCN(c2ncc(F)c(N3CC(C(=O)N(C)C(C)(C)c4cnc5ccccn45)C3)n2)CC1` [Example 78], the half-maximal inhibitory concentration (IC50) in data set [4] was found to be 400 nM; in data set [5], 120 nM. Further, in data set [2], the 50% effective concentration (EC50) was more than 1000 nM. The half-life in data set [6] (cassette dosing of 4 compounds) was 2.3 h. In data set [6] (setting [7]), this molecule returned a bioavailability of 73%. The half-life at 1 µM in data set [3] was more than 3 h.

Turning to `COCC1CN(c2ncc(Cl)c(N3CC(C(=O)NC(C)(C)c4cnc5ccccn45)C3)n2)CCN1C` (stereo not drawn) [Example 80], the values for the IC50 in data set [4] and in data set [5] were 23 nM and 7.9 nM, respectively. Further, the EC50 in data set [2] stood at 97 nM. The half-life at 1 µM in data set [3] came to 0.743 h.

As for `C[C@@H]1CN(c2ncc(F)c(N3CC(C(=O)NC(C)(C)c4cnc5ccccn45)C3)n2)CCN1C` [Example 84, 1-{2-[(3R)-3,4-dimethylpiperazin-1-yl]-5-fluoropyrimidin-4-yl}-N-(2-{imidazo[1,2-a]pyridin-3-yl}propan-2-yl)azetidine-3-carboxamide], the figures for the half-maximal inhibitory concentration (IC50) in data set [4] and in data set [5] were 33 nM and 4.6 nM, respectively. In data set [2], the EC50 turned out to be 34 nM. For the same molecule, the half-life at 1 µM in data set [3] stood at 2.41 h.

Take `COc1cnc(N2CCN(C)[C@@H](C)C2)nc1N1CC(C(=O)NC(C)(C)c2cnc3ccccn23)C1` [Example 85, 1-{2-[(3S)-3,4-dimethylpiperazin-1-yl]-5-methoxypyrimidin-4-yl}-N-(2-{imidazo[1,2-a]pyridin-3-yl}propan-2-yl)azetidine-3-carboxamide]: the IC50 in data set [4] came to 6.3 nM; in data set [5], 8 nM. Moreover, in data set [2], the EC50 came to 14 nM. The same molecule yielded a half-life at 1 µM in data set [3] of more than 3 h.

Consider `COc1cnc(N2C[C@@H](C)N(C)[C@@H](C)C2)nc1N1CC(C(=O)NC(C)(C)c2cnc3ccccn23)C1` [Example 88, N-(2-{imidazo[1,2-a]pyridin-3-yl}propan-2-yl)-1-{5-methoxy-2-[(3R,5S)-3,4,5-trimethylpiperazin-1-yl]pyrimidin-4-yl}azetidine-3-carboxamide], for which the EC50 in data set [2] amounted to 76 nM. The half-life at 1 µM in data set [3] was more than 3 h.

Turning to `C[C@@H]1CN(c2ncc(Cl)c(N3CC(C(=O)NC(C)(C)c4cnc5ccccn45)C3)n2)C[C@H](C)N1C` [Example 89, 1-{5-chloro-2-[(3R,5S)-3,4,5-trimethylpiperazin-1-yl]pyrimidin-4-yl}-N-(2-{imidazo[1,2-a]pyridin-3-yl}propan-2-yl)azetidine-3-carboxamide], the IC50 in data set [4] amounted to 27 nM; in data set [5], 12 nM. In addition, the half-maximal effective concentration (EC50) in data set [2] was determined as 88 nM. The molecule also displayed a half-life at 1 µM in data set [3] of more than 3 h.

Turning to `C[C@@H]1CN(c2ncc(F)c(N3CC(C(=O)NC(C)(C)c4cnc5ccccn45)C3)n2)C[C@H](C)N1C` [Example 90, 1-{5-fluoro-2-[(3R,5S)-3,4,5-trimethylpiperazin-1-yl]pyrimidin-4-yl}-N-(2-{imidazo[1,2-a]pyridin-3-yl}propan-2-yl)azetidine-3-carboxamide], the figures for the 50% inhibitory concentration (IC50) in data set [4] and in data set [5] were 94 nM and 19 nM, respectively. Besides, the EC50 in data set [2] turned out to be 300 nM. The molecule further showed a half-life at 1 µM in data set [3] of more than 3 h.

In the case of `C[C@H]1CN(c2ncc(Cl)c(N3CC(C(=O)NC(C)(C)c4cnc5ccccn45)C3)n2)C[C@H](C)N1C` [Example 95, 1-{5-chloro-2-[(3S,5S)-3,4,5-trimethylpiperazin-1-yl]pyrimidin-4-yl}-N-(2-{imidazo[1,2-a]pyridin-3-yl}propan-2-yl)azetidine-3-carboxamide], the figures for the 50% inhibitory concentration (IC50) in data set [4] and in data set [5] were 17 nM and 34 nM, respectively. For the same molecule, the EC50 in data set [2] is 150 nM. The half-life at 1 µM in data set [3] is 1.51 h.

With `CC1CN(c2ncc(F)c(N3CC(C(=O)NC(C)(C)c4cnc5ccccn45)C3)n2)C[C@H](C)N1C` (stereo partly drawn) [Example 96, 1-{5-fluoro-2-[(3S,5S)S-3,4,5-trimethylpiperazin-1-yl]pyrimidin-4-yl}-N-(2-{imidazo[1,2-a]pyridin-3-yl}propan-2-yl)azetidine-3-carboxamide], the IC50 is 31 nM in data set [4] and 130 nM in data set [5]. The concentration giving a half-maximal response (EC50) in data set [2] was more than 910 nM. The same molecule came in with a half-life at 1 µM in data set [3] of more than 3 h.

For the molecule `C[C@H]1CN(C)CCN1c1ncc(Cl)c(N2CC(C(=O)N(C)C(C)(C)c3cnc4ccccn34)C2)n1` [Example 107, 1-{5-chloro-2-[(2S)-2,4-dimethylpiperazin-1-yl]pyrimidin-4-yl}-N-(2-{imidazo[1,2-a]pyridin-3-yl}propan-2-yl)-N-methylazetidine-3-carboxamide], the EC50 in data set [2] is 140 nM. The half-life in data set [6] (cassette dosing of 4 compounds) was 1.7 h. This molecule also came in with a bioavailability in data set [6] (setting [7]) of 37%.

On to `C[C@H]1CN(C)CCN1c1ncc(F)c(N2CC(C(=O)N(C)C(C)(C)c3cnc4ccccn34)C2)n1` [Example 108, 1-{2-[(2S)-2,4-dimethylpiperazin-1-yl]-5-fluoropyrimidin-4-yl}-N-(2-{imidazo[1,2-a]pyridin-3-yl}propan-2-yl)-N-methylazetidine-3-carboxamide], for which the EC50 in data set [2] came out at 200 nM. In addition, the half-life at 1 µM in data set [3] worked out at 0.967 h.

Turning to `CCN(CC)CCCC(C)Nc1ccnc2cc(Cl)ccc12` (stereo not drawn) [chloroquine, reference compound], the “mice / smears parasite free” value in data set [1] (4×50 mg/kg p.o., day 7) is “parasite-free”.
